How the values were obtained:
HL-60(TB) = experiment: NCI60 panel growth inhibition; type: cell-based; conditions: Homo sapiens; HL-60(TB) cell line
Method: The human tumor cell lines of the cancer screening panel may be grown in RPMI 1640 medium containing 5% fetal bovine serum and 2 mM L-glutamine. Cells may be inoculated into 96 well microtiter plates in 100 μL at plating densities ranging from 5,000 to 40,000 cells/well depending on the doubling time of individual cell lines. After cell inoculation, the microtiter plates may be incubated at 37° C., 5% CO2, 95% air and 100% relative humidity for 24 hours prior to addition of experimental compounds. After 24 hours, two plates of each cell line may be fixed in situ with TCA, to represent a measurement of the cell population for each cell line at the time of compound addition (Tz). Experimental compounds may be solubilized in dimethyl sulfoxide at 400-fold the desired final maximum test concentration and stored frozen prior to use. […] Bound stain may be subsequently solubilized with 10 mM trizma base, and the absorbance may be read on an automated plate reader at a wavelength of 515 nm. […] Using the seven absorbance measurements [time zero, (Tz), control growth, (C), and test growth in the presence of compound (e.g., dovitinib or a pharmaceutically acceptable salt thereof) at the five concentration levels (Ti)], the percentage growth may be calculated at each of the compound concentrations levels. […] The compound concentration resulting in total growth inhibition (TGI) is calculated from Ti=Tz. […]

786-0 = experiment: NCI60 panel growth inhibition; type: cell-based; conditions: Homo sapiens; 786-0 cell line
Method: (§1) The human tumor cell lines of the cancer screening panel may be grown in RPMI 1640 medium containing 5% fetal bovine serum and 2 mM L-glutamine. Cells may be inoculated into 96 well microtiter plates in 100 μL at plating densities ranging from 5,000 to 40,000 cells/well depending on the doubling time of individual cell lines. After cell inoculation, the microtiter plates may be incubated at 37° C., 5% CO2, 95% air and 100% relative humidity for 24 hours prior to addition of experimental compounds. After 24 hours, two plates of each cell line may be fixed in situ with TCA, to represent a measurement of the cell population for each cell line at the time of compound addition (Tz). Experimental compounds may be solubilized in dimethyl sulfoxide at 400-fold the desired final maximum test concentration and stored frozen prior to use. At the time of compound (e.g., dovitinib or a pharmaceutically acceptable salt thereof) addition, an aliquot of frozen concentrate may be thawed and diluted to twice the desired final maximum test concentration with complete medium containing 50 μg/ml Gentamicin. Additional four, 10-fold or ½ log serial dilutions are made to provide a total of five concentrations plus control. […] Following compound (e.g., dovitinib or a pharmaceutically acceptable salt thereof) addition, the plates may be incubated for an additional 48 h at 37° C., 5% CO2, 95% air, and 100% relative humidity. For adherent cells, the assay may be terminated by the addition of cold TCA. Cells may be fixed in situ by the gentle addition of 50 μl of cold 50% (w/v) TCA (final concentration, 10% TCA) and incubated for 60 minutes at 4° C. The supernatant may be discarded, and the plates may be washed five times with tap water and air-dried. Sulforhodamine B (SRB) solution (100 μl) at 0.4% (w/v) in 1% acetic acid may be added to each well, and plates are incubated for 10 minutes at room temperature. After staining, unbound dye may be removed by washing five times with 1% acetic acid and the plates may be air-dried. […] Values are calculated for each of these three parameters if the level of activity is reached; however, if the effect is not reached or is exceeded, the value for that parameter is expressed as greater or less than the maximum or minimum concentration tested.

A498 = experiment: NCI60 panel growth inhibition; type: cell-based; conditions: Homo sapiens; A498 cell line
Method: as §1

A549/ATCC = experiment: NCI60 panel growth inhibition; type: cell-based; conditions: Homo sapiens; A549/ATCC cell line
Method: as §1

ACHN = experiment: NCI60 panel growth inhibition; type: cell-based; conditions: Homo sapiens; ACHN cell line
Method: as §1

BT-549 = experiment: NCI60 panel growth inhibition; type: cell-based; conditions: Homo sapiens; BT-549 cell line
Method: as §1

CAKI-1 = experiment: NCI60 panel growth inhibition; type: cell-based; conditions: Homo sapiens; CAKI-1 cell line
Method: as §1

CCRF-CEM = experiment: NCI60 panel growth inhibition; type: cell-based; conditions: Homo sapiens; CCRF-CEM cell line
Method: as §1

COLO 205 = experiment: NCI60 panel growth inhibition; type: cell-based; conditions: Homo sapiens; COLO 205 cell line
Method: as §1

DU-145 = experiment: NCI60 panel growth inhibition; type: cell-based; conditions: Homo sapiens; DU-145 cell line
Method: as §1

EKVX = experiment: NCI60 panel growth inhibition; type: cell-based; conditions: Homo sapiens; EKVX cell line
Method: as §1

HCC-2998 = experiment: NCI60 panel growth inhibition; type: cell-based; conditions: Homo sapiens; HCC-2998 cell line
Method: as §1

HCT-116 = experiment: NCI60 panel growth inhibition; type: cell-based; conditions: Homo sapiens; HCT-116 cell line
Method: as §1

HCT-15 = experiment: NCI60 panel growth inhibition; type: cell-based; conditions: Homo sapiens; HCT-15 cell line
Method: as §1

HOP-62 = experiment: NCI60 panel growth inhibition; type: cell-based; conditions: Homo sapiens; HOP-62 cell line
Method: as §1

HOP-92 = experiment: NCI60 panel growth inhibition; type: cell-based; conditions: Homo sapiens; HOP-92 cell line
Method: as §1

HS 578T = experiment: NCI60 panel growth inhibition; type: cell-based; conditions: Homo sapiens; HS 578T cell line
Method: as §1

HT29 = experiment: NCI60 panel growth inhibition; type: cell-based; conditions: Homo sapiens, HT-29; HT29 cell line
Method: as §1

IGROV1 = experiment: NCI60 panel growth inhibition; type: cell-based; conditions: Homo sapiens, IGROV-1; IGROV1 cell line
Method: as §1

K-562 = experiment: NCI60 panel growth inhibition; type: cell-based; conditions: Homo sapiens, K562; K-562 cell line
Method: as §1

KM12 = experiment: NCI60 panel growth inhibition; type: cell-based; conditions: Homo sapiens; KM12 cell line
Method: as §1

LOX IMVI = experiment: NCI60 panel growth inhibition; type: cell-based; conditions: Homo sapiens; LOX IMVI cell line
Method: as §1

M14 = experiment: NCI60 panel growth inhibition; type: cell-based; conditions: Homo sapiens; M14 cell line
Method: as §1

MALME-3M = experiment: NCI60 panel growth inhibition; type: cell-based; conditions: Homo sapiens; MALME-3M cell line
Method: as §1

MCF7 = experiment: NCI60 panel growth inhibition; type: cell-based; conditions: Homo sapiens; MCF7 cell line
Method: as §1

MDA-MB-231/ATCC = experiment: NCI60 panel growth inhibition; type: cell-based; conditions: Homo sapiens; MDA-MB-231/ATCC cell line
Method: as §1

MDA-MB-435 = experiment: NCI60 panel growth inhibition; type: cell-based; conditions: Homo sapiens; MDA-MB-435 cell line
Method: as §1

MDA-MB-468 = experiment: NCI60 panel growth inhibition; type: cell-based; conditions: Homo sapiens; MDA-MB-468 cell line
Method: as §1

MOLT-4 = experiment: NCI60 panel growth inhibition; type: cell-based; conditions: Homo sapiens; MOLT-4 cell line
Method: as §1

NCl-H226 = experiment: NCI60 panel growth inhibition; type: cell-based; conditions: Homo sapiens; NCl-H226 cell line
Method: as §1

NCl-H23 = experiment: NCI60 panel growth inhibition; type: cell-based; conditions: Homo sapiens; NCl-H23 cell line
Method: as §1

NCl-H322M = experiment: NCI60 panel growth inhibition; type: cell-based; conditions: Homo sapiens; NCl-H322M cell line
Method: as §1

NCl-H460 = experiment: NCI60 panel growth inhibition; type: cell-based; conditions: Homo sapiens; NCl-H460 cell line
Method: as §1

NCl-H522 = experiment: NCI60 panel growth inhibition; type: cell-based; conditions: Homo sapiens; NCl-H522 cell line
Method: as §1

NCl/ADR-RES = experiment: NCI60 panel growth inhibition; type: cell-based; conditions: Homo sapiens; NCl/ADR-RES cell line
Method: as §1

OVCAR-3 = experiment: NCI60 panel growth inhibition; type: cell-based; conditions: Homo sapiens; OVCAR-3 cell line
Method: as §1

OVCAR-4 = experiment: NCI60 panel growth inhibition; type: cell-based; conditions: Homo sapiens; OVCAR-4 cell line
Method: as §1

OVCAR-5 = experiment: NCI60 panel growth inhibition; type: cell-based; conditions: Homo sapiens; OVCAR-5 cell line
Method: as §1

OVCAR-8 = experiment: NCI60 panel growth inhibition; type: cell-based; conditions: Homo sapiens; OVCAR-8 cell line
Method: as §1

PC-3 = experiment: NCI60 panel growth inhibition; type: cell-based; conditions: Homo sapiens; PC-3 cell line
Method: as §1

RPMI-8226 = experiment: NCI60 panel growth inhibition; type: cell-based; conditions: Homo sapiens; RPMI-8226 cell line
Method: as §1

RXF 393 = experiment: NCI60 panel growth inhibition; type: cell-based; conditions: Homo sapiens; RXF 393 cell line
Method: as §1

SF-268 = experiment: NCI60 panel growth inhibition; type: cell-based; conditions: Homo sapiens; SF-268 cell line
Method: as §1

SF-295 = experiment: NCI60 panel growth inhibition; type: cell-based; conditions: Homo sapiens; SF-295 cell line
Method: as §1

SF-539 = experiment: NCI60 panel growth inhibition; type: cell-based; conditions: Homo sapiens; SF-539 cell line
Method: as §1

SK-MEL-28 = experiment: NCI60 panel growth inhibition; type: cell-based; conditions: Homo sapiens; SK-MEL-28 cell line
Method: as §1

SK-MEL-2 = experiment: NCI60 panel growth inhibition; type: cell-based; conditions: Homo sapiens; SK-MEL-2 cell line
Method: as §1

SK-MEL-5 = experiment: NCI60 panel growth inhibition; type: cell-based; conditions: Homo sapiens; SK-MEL-5 cell line
Method: as §1

SK-OV-3 = experiment: NCI60 panel growth inhibition; type: cell-based; conditions: Homo sapiens; SK-OV-3 cell line
Method: as §1

SN12C = experiment: NCI60 panel growth inhibition; type: cell-based; conditions: Homo sapiens; SN12C cell line
Method: as §1

SNB-19 = experiment: NCI60 panel growth inhibition; type: cell-based; conditions: Homo sapiens; SNB-19 cell line
Method: as §1

SNB-75 = experiment: NCI60 panel growth inhibition; type: cell-based; conditions: Homo sapiens; SNB-75 cell line
Method: as §1

SR = experiment: NCI60 panel growth inhibition; type: cell-based; conditions: Homo sapiens; SR cell line
Method: as §1

SW-620 = experiment: NCI60 panel growth inhibition; type: cell-based; conditions: Homo sapiens; SW-620 cell line
Method: as §1

T-47D = experiment: NCI60 panel growth inhibition; type: cell-based; conditions: Homo sapiens, T47D; T-47D cell line
Method: as §1

TK-10 = experiment: NCI60 panel growth inhibition; type: cell-based; conditions: Homo sapiens; TK-10 cell line
Method: as §1

U251 = experiment: NCI60 panel growth inhibition; type: cell-based; conditions: Homo sapiens, U-251; U251 cell line
Method: as §1

UACC-257 = experiment: NCI60 panel growth inhibition; type: cell-based; conditions: Homo sapiens; UACC-257 cell line
Method: as §1

UACC-62 = experiment: NCI60 panel growth inhibition; type: cell-based; conditions: Homo sapiens; UACC-62 cell line
Method: as §1

UO-31 = experiment: NCI60 panel growth inhibition; type: cell-based; conditions: Homo sapiens; UO-31 cell line
Method: as §1

[1] = system: patients with RCC, GIST, endometrial cancer, HCC or breast cancer; experiment: Clinical response rate as a function of DRP cutoff, all five cohorts of Examples 2-6; type: in vivo, human
Source text: Gene expression data (Affymetrix) and clinical response data was obtained from 73 patients in the dovitinib arm. The DRP was applied to calculate a score for each patient (mean of genes in Table 2 minus mean of genes in Table 3). The score for each patient was compared to a reference population with the same diagnosis. For the reference population the dovitinib and sorafenib arms were combined (N=148). This allowed the calculation of a percentile score for each patient. Patients were grouped according to RECIST v1.1 response (centrally assessed) and included in FIG. 1.
Gene expression data (Affymetrix) and clinical response data was obtained from 14 patients. The DRP was applied to calculate a score for each patient (mean of genes in Table 2 minus mean of genes in Table 3). The score for each patient was compared to a reference population with the same diagnosis. For the reference population public data sets were downloaded from the GEO database (GSE20708, GSE17743, GSE8167, N=83). This allowed the calculation of a percentile score for each patient. Patients were grouped according to RECIST v1.1 response (locally assessed, no central assessment) and included in FIG. 1.
Gene expression data (Affymetrix) and clinical response data was obtained from 29 patients. The DRP was applied to calculate a score for each patient (mean of genes in Table 2 minus mean of genes in Table 3). The score for each patient was compared to a reference population with the same diagnosis. For the reference population a public data set was downloaded from the GEO database (GSE17025, N=91). This allowed the calculation of a percentile score for each patient. Patients were grouped according to RECIST v1.1 response (central assessment) and included in FIG. 1.
Gene expression data (Affymetrix) and clinical response data was obtained from 6 patients in the dovitinib arm. The DRP was applied to calculate a score for each patient (mean of genes in Table 2 minus mean of genes in Table 3). The score for each patient was compared to a reference population with the same diagnosis. […]

`CN1CCN(c2ccc3nc(-c4c(N)c5c(F)cccc5[nH]c4=O)[nH]c3c2)CC1` [dovitinib, 4-amino-5-fluoro-3-[6-(4-methylpiperazin-1-yl)-1H-benzimidazol-2-yl]-1H-quinolin-2-one] showed a GI50 (HL-60(TB)) of 1.07 µM, a GI50 (786-0) of 0.724 µM and a GI50 (A498) of 0.135 µM. The GI50 (A549/ATCC) was 0.562 µM, the GI50 (ACHN) was 0.331 µM and the GI50 (BT-549) was 1.05 µM. The GI50 (CAKI-1) was 0.468 µM, the GI50 (CCRF-CEM) was 0.589 µM and the GI50 (COLO 205) was 2.24 µM. For the same molecule, the GI50 (DU-145) was 1.15 µM, the GI50 (EKVX) was 7.59 µM and the GI50 (HCC-2998) was 1.32 µM. For the same molecule, the GI50 (HCT-116) was 0.417 µM, the GI50 (HCT-15) was 0.427 µM and the GI50 (HOP-62) was 1.45 µM. The GI50 (HOP-92) was 0.355 µM, the GI50 (HS 578T) was 0.977 µM and the GI50 (HT29) was 1.41 µM. For the same molecule, the GI50 (IGROV1) was 0.251 µM, the GI50 (K-562) was 0.55 µM and the GI50 (KM12) was 0.0417 µM. The GI50 (LOX IMVI) was 0.871 µM, the GI50 (M14) was 0.389 µM and the GI50 (MALME-3M) was 0.49 µM. For the same molecule, the GI50 (MCF7) was 1.17 µM, the GI50 (MDA-MB-231/ATCC) was 2.34 µM and the GI50 (MDA-MB-435) was 1.07 µM. It also gave a GI50 (MDA-MB-468) of 2.57 µM, a GI50 (MOLT-4) of 0.331 µM and a GI50 (NCl-H226) of 0.355 µM. It also gave a GI50 (NCl-H23) of 2.45 µM, a GI50 (NCl-H322M) of 0.759 µM and a GI50 (NCl-H460) of 0.468 µM. For the same molecule, the GI50 (NCl-H522) was 3.16 µM, the GI50 (NCl/ADR-RES) was 2.69 µM and the GI50 (OVCAR-3) was 6.76 µM. For the same molecule, the GI50 (OVCAR-4) was 0.575 µM, the GI50 (OVCAR-5) was 1.78 µM and the GI50 (OVCAR-8) was 1.45 µM. It also gave a GI50 (PC-3) of 1.12 µM, a GI50 (RPMI-8226) of 1.48 µM and a GI50 (RXF 393) of 0.219 µM. For the same molecule, the GI50 (SF-268) was 2.19 µM, the GI50 (SF-295) was 6.03 µM and the GI50 (SF-539) was 0.427 µM. It also gave a GI50 (SK-MEL-28) of 1.48 µM, a GI50 (SK-MEL-2) of 0.891 µM and a GI50 (SK-MEL-5) of 1.78 µM. It also gave a GI50 (SK-OV-3) of 0.513 µM, a GI50 (SN12C) of 0.676 µM and a GI50 (SNB-19) of 2.63 µM. For the same molecule, the GI50 (SNB-75) was 0.977 µM, the GI50 (SR) was 0.447 µM and the GI50 (SW-620) was 0.55 µM. For the same molecule, the GI50 (T-47D) was 10 µM, the GI50 (TK-10) was 7.76 µM and the GI50 (U251) was 0.55 µM. It also gave a GI50 (UACC-257) of 3.39 µM, a GI50 (UACC-62) of 3.63 µM and a GI50 (UO-31) of 0.219 µM. For the same molecule, the “overall response rate (ORR=CR+PR)” value ([1]; all five cohorts from Examples 2-6, patients at DRP cutoff of 50) was 26%, the “overall response rate (ORR=CR+PR)” value ([1]; all five cohorts from Examples 2-6, patients at DRP cutoff of 80) was 35% and the “average overall response rate (ORR=CR+PR)” value ([1]; all five cohorts from Examples 2-6, without the DRP (breast cohort received dovitinib plus fulvestrant)) was 16%.
